By Kd is commonly meant the concentration at which binding is half-saturated. The term IC50 denotes the point on the concentration scale where inhibition reaches its midpoint. The term half-life denotes the time in which the quantity being followed falls by half. Read a high half-life as slow loss. What is called solubility is how much of the substance goes into solution per volume. A lower solubility goes with little dissolved substance.

The text below walks through data of patent publication US20260294922A1, “Inhibitors of JUN N-Terminal Kinases (JNK1, JNK2, and/or JNK3) and Mitogen-Activated Protein Kinases (MAPK8, MAPK9, and/or MAPK10) and Methods of Using Same” (Baylor College of Medicine, priority 2023, published 2026).

One data set deals with T1, CSNK1A1 (Homo sapiens, UniProt P48729).
T1 construct: purchased ThermoFisher (SelectScreen)
Kind of data set: ThermoFisher SelectScreen, CSNK1A1. The format is binding. The following applies: Table 4. As to the method:
(§1) To mitigate violation of the linear initial velocity principle, which is a problem in end-point assays when doing dose-responses, the enzyme concentration was carefully optimized, in a total assay volume of 25 μL. The assay was performed using 10 μM ATP, 0.02% Tween-20, kinase buffer from Cell Signaling (#9802) in white 384-well plates. The kinase reaction was done for 30 or 60 min at 30° C., and detection of leftover ATP was measured according to Promega's protocol. […] Fractional activities were obtained from normalized data. Non-linear regression (GraphPad Prism7) and a modified Morrison equation for tight binding was used to determine apparent Ki values for inhibitors, assuming no particular mode of inhibition. An orthogonal binding assay (LanthaScreen) was outsourced to ThermoFisher Scientific's SelectScreen Services to determine IC50 values.
(§2) One of the earliest compounds to be synthesized with favorable enzymatic activity towards JNK1 and JNK3 was CDD-2346. A KINOMEscan was performed for CDD-2346 to establish whether the selectivity of this chemical scaffold was suitable or required optimization. […] To confirm that the activity against each kinase was a true result and not a false positive, CDD-2346 was evaluated in kinase assays using ThermoFisher SelectScreen platform. The results from these assays are provided herein (Table 4). The important innovative steps described are the optimization of selectivity a) for JNK isoforms; b) for kinases considered “in-pathway”; and c) to avoid kinases considered “out-of-pathway”.

The target in a further data set is T2, CSNK1D (Homo sapiens, UniProt P48730).
T2 construct: purchased ThermoFisher (SelectScreen)
In words: ThermoFisher SelectScreen, CSNK1D. The format is binding.

A further data set relates to 480 kinases. Kind of data set: Eurofins KINOMEscan selectivity profile. The format is binding. The settings on record: Bentamapimod and Tanzisertib at 1 μM.
The target in data set [1] is T3, JNK3 (Homo sapiens, UniProt P53779). Kind of data set: Promega NanoBRET intracellular target engagement (tracer K10 displacement), JNK3. It counts as cell-based.
Data set [2] can be described thus: In vitro metabolism in human liver microsomes. The settings on record: human, microsomes. As to the method: The target product profile seeks to deliver JNK inhibitor as a once daily oral administration. To prioritize compounds for further development, in vitro metabolism of several CDD JNK inhibitors were determined to approximate the plasma half-life and the rate of metabolism of the compounds in vivo.
In general terms: Microsomes from liver hold many membrane-bound enzymes, among them those of drug oxidation.

Data set [3] has as its target T4, JNK1 (Homo sapiens, UniProt P45983). Kind of data set: JNK1 kinase (intrinsic ATPase, Kinase-Glo) assay. It counts as biochemical. The procedure, abridged:
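Full-length construct not stated; kinases hydrolyse ATP without peptide substrate, reaction run 30 or 60 min at 30° C, remaining ATP read by Kinase-Glo luminescence with no-kinase controls. Apparent Ki from normalized fractional activities fitted to modified Morrison tight-binding equation; orthogonal LanthaScreen binding assay gave IC50.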

Data set [4] has as its target T4, JNK1. In words: Promega NanoBRET intracellular target engagement (tracer K10 displacement), JNK1. It counts as cell-based. In general terms: Bioluminescence resonance energy transfer reports proximity on the nanometre scale.
The next data set addresses T5, PIP5K1C (Homo sapiens, UniProt O60331).
T5 construct: purchased ThermoFisher (SelectScreen, outsourced service)
Kind of data set: ThermoFisher SelectScreen, PIP5K1C. It counts as binding. The settings on record: Table 4. The protocol: as §1, §2

Data set [5] addresses T3, JNK3. In words: ThermoFisher SelectScreen, JNK3. The format is binding.
Another data set addresses JNK2 (Homo sapiens, UniProt P45984). In words: JNK2 kinase (intrinsic ATPase, Kinase-Glo) assay. The settings on record: Table 3a; read-out: Kd JNK2. The format is biochemical. (In general: In Kinase-Glo more light means more ATP remaining.)
The target in data set [6] is T3, JNK3. Kind of data set: JNK3 kinase (intrinsic ATPase, Kinase-Glo) assay. The format is biochemical. The following applies: Table 3a; read-out: Kd JNK3.
In a further data set the target is T6, DYRK2 (Homo sapiens, UniProt Q92630).
T6 construct: purchased ThermoFisher (SelectScreen)
T6 sequence (Q92630 1-601): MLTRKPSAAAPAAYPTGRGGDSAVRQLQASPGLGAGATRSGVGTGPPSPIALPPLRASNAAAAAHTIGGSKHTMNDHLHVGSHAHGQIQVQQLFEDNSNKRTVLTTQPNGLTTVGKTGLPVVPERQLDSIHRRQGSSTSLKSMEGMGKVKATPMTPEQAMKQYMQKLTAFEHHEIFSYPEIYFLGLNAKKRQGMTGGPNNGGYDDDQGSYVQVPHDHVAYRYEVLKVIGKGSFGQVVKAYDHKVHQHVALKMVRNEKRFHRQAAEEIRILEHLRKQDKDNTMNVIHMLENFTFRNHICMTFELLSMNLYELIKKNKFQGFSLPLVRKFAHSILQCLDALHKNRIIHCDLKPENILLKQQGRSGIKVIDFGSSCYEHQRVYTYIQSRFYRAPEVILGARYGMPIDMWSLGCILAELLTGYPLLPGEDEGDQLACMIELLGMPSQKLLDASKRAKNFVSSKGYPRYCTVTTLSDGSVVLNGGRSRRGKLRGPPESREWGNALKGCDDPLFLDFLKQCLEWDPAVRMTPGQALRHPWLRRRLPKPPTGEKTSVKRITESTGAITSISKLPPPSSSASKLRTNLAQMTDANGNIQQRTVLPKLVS
In words: ThermoFisher SelectScreen, DYRK2. The settings on record: Table 4. It counts as binding. As to the method:
as §1, §2

Converted amounts (≈) assume the structure as drawn.

T3 sequence (P53779 whole entry): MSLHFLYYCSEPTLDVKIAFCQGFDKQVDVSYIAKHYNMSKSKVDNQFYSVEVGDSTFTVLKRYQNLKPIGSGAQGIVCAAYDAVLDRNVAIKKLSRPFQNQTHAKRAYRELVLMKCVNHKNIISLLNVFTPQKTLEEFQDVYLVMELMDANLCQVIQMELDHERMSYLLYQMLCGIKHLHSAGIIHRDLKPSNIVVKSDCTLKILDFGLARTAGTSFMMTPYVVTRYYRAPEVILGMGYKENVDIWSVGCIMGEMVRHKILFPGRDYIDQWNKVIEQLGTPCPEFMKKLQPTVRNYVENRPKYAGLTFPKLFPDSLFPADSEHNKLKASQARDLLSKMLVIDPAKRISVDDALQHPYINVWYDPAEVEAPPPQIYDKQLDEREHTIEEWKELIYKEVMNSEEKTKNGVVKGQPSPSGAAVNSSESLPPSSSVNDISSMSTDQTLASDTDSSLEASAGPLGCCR
Chain of JNK2 (P45984 whole entry): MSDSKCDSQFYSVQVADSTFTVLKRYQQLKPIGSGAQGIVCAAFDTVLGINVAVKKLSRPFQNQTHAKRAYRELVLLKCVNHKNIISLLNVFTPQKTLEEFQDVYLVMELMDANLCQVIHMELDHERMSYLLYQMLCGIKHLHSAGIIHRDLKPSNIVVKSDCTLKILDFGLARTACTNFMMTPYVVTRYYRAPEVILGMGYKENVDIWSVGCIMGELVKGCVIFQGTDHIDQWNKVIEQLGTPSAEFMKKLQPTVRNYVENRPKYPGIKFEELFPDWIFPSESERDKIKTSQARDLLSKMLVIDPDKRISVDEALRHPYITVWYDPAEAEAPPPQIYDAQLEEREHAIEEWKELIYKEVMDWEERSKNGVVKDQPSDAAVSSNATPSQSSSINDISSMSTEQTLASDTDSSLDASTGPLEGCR
T1 sequence (P48729 whole entry): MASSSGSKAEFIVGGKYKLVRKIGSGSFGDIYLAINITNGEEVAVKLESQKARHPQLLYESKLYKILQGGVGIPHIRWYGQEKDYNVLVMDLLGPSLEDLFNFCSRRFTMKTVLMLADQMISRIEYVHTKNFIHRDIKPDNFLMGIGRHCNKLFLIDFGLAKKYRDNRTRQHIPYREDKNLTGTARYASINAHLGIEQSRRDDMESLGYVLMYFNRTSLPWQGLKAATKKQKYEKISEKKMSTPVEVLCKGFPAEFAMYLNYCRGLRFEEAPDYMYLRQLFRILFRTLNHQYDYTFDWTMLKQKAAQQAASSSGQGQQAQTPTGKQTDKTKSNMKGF
T4 sequence (P45983 whole entry): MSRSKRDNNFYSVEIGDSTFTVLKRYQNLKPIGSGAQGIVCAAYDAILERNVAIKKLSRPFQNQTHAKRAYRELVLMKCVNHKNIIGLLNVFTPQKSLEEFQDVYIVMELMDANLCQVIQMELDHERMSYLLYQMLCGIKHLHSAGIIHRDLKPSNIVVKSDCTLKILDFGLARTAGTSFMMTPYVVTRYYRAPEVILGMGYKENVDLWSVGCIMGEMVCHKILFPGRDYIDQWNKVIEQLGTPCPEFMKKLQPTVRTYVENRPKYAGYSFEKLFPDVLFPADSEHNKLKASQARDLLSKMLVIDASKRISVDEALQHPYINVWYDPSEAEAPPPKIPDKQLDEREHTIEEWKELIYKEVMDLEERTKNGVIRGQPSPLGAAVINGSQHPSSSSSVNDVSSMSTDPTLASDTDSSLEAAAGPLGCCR
T2 sequence (P48730 whole entry): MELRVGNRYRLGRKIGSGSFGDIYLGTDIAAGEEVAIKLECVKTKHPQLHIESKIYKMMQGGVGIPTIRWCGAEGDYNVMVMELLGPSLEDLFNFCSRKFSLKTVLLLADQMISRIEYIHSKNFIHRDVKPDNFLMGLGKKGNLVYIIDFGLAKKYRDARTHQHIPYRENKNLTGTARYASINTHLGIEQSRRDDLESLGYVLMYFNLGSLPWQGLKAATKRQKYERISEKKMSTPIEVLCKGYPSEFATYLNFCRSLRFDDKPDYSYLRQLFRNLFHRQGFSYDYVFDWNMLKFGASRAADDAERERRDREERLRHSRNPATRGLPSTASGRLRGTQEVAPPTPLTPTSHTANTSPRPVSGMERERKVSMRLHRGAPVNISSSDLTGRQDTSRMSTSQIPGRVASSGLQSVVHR
T5 sequence (O60331 whole entry): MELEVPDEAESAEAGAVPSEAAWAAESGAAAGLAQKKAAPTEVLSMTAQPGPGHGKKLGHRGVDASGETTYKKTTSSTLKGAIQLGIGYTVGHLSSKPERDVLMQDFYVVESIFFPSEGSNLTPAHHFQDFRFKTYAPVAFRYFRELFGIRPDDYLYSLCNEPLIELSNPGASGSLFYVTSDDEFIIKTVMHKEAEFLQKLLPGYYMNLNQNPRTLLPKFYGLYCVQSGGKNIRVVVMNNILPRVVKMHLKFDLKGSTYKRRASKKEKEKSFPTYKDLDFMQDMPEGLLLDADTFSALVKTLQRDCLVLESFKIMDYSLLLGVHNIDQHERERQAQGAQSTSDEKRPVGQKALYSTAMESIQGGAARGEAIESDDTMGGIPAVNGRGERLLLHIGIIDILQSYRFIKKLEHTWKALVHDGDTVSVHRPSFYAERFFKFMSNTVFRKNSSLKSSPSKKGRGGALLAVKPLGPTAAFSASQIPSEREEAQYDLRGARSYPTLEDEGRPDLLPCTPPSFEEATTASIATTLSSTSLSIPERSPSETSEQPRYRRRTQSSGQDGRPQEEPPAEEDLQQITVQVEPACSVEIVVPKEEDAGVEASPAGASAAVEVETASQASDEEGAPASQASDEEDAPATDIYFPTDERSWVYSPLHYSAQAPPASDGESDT

With `CNCc1ccc(NC(=O)c2ccn3ncc(-c4cnc5[nH]ccc5c4)c3c2)cc1` [CDD-2346, N-(4-((methylamino)methyl)phenyl)-3-(1H-pyrrolo[2,3-b]pyridin-5-yl)pyrazolo[1,5-a]pyridine-5-carboxamide], the Kd at CSNK1A1 was 0.085 µM; at CSNK1D it was 0.055 µM; at JNK1 [3], 0.00023 ± 8e-05 µM; on PIP5K1C, 0.811 µM; on JNK3 [5] it was 0.00065 µM; on JNK2, 0.00094 ± 0.00022 µM. In addition, the Kd turned out to be 0.00065 ± 0.00016 µM on JNK3 [6] and 0.078 µM at DYRK2. Moreover, the “KINOMEscan selectivity / inhibition” value in the data set on 480 kinases is on record as “selectivity of CDD-2346 was inadequate”. Moreover, the values for the IC50 on JNK3 [1] and on JNK1 [4] were 3 µM and 5.1 µM, respectively. The half-life in data set [2] is 3.14 h. Moreover, the solubility in “Solubility” amounted to 167 µM (≈ 66.1 µg/mL). For the same compound, on JNK1 [4] (NanoBRET), the “inhibition of binding to JNK1, JNK2, and JNK3 relative to staurosporine” value was “superior to staurosporine”.

On to `CN(C)Cc1ccc(NC(=O)c2ccn3ncc(-c4cnc5[nH]ccc5c4)c3c2)cc1` [CDD-2482, N-(4-((dimethylamino)methyl)phenyl)-3-(1H-pyrrolo[2,3-b]pyridin-5-yl)pyrazolo[1,5-a]pyridine-5-carboxamide], for which the Kd on CSNK1A1 was found to be 0.0705 µM; at CSNK1D it was 0.03 µM; at JNK1 [3], 0.00025 ± 4e-05 µM; at PIP5K1C it was 13.2 µM; on JNK3 [5], 0.00045 µM; at JNK2 it was 0.00074 ± 9e-05 µM. For the same compound, the results for the equilibrium dissociation constant (Kd) at JNK3 [6] and on DYRK2 were 0.00045 ± 4e-05 µM and 0.048 µM, respectively. Further, in data set [2], the half-life came out at 0.945 h. Moreover, the concentration in solution in the data set “Solubility” (solubility) was 176 µM (≈ 72.2 µg/mL).

Take `CN(C)C(=O)c1cc(NC(=O)c2cc3c(-c4cnc5[nH]ccc5c4)cccc3s2)ccc1O` [CDD-2728, N-(3-(dimethylcarbamoyl)-4-hydroxyphenyl)-4-(1H-pyrrolo[2,3-b]pyridin-5-yl)benzo[b]thiophene-2-carboxamide]: the results for the Kd on CSNK1D and at JNK1 [3] were 0.821 µM and 0.00024 ± 5e-05 µM, respectively. In addition, the IC50 on JNK3 [1] turned out to be 0.534 µM; on JNK1 [4], 0.599 µM. In addition, the half-life in data set [2] came to 2.89 h. The compound also had a solubility in the data set “Solubility” of 19.4 µM (≈ 8.86 µg/mL). Moreover, the “improvement of NanoBRET IC50 for JNK1 (CDD-2346/CDD-2728)” value on JNK1 [4] (relative to CDD-2346) came out at 8.5 fold.

Regarding `O=C(Nc1ccc(F)cc1)c1ccn2ncc(-c3cnc4[nH]ccc4c3)c2c1` [CDD-2486, N-(4-fluorophenyl)-3-(1H-pyrrolo[2,3-b]pyridin-5-yl)pyrazolo[1,5-a]pyridine-5-carboxamide], the Kd at CSNK1A1 stood at 41.3 µM; at CSNK1D, 2.35 µM; on JNK1 [3], 0.0017 ± 0.0002 µM; on PIP5K1C, 1.15 µM; at JNK3 [5], 0.00434 µM; on JNK2, 0.00067 ± 9e-05 µM. For the same compound, the dissociation constant Kd stood at 0.00086 ± 5e-05 µM at JNK3 [6] and 0.288 µM at DYRK2. For the same compound, the IC50 amounted to 0.468 µM at JNK3 [1] and 0.77 µM on JNK1 [4]. The compound further yielded a half-life in data set [2] of 0.565 h. Further, the solubility in “Solubility” was 0.3 µM (≈ 0.111 µg/mL).
